Experimental data reported in the kinase profiling compilation of Christmann-Franck et al. (2016).

Columns and labels:
Assay in all cases: radiometric filter-binding kinase assay, Kinase HotSpot
Conditions in all cases: compound 0.5 µM; ATP 10 µM
MAPKAPK2 (human) = MAPKAPK2 (human) (UniProt P49137)
PKN2 (human) = PKN2 (human) (UniProt Q16513)
MAP3K10 (human) = MAP3K10 (human) (UniProt Q02779)
TXK (human) = TXK (human) (UniProt P42681)
CDK2 CCNA2 (human) = CDK2 CCNA2 (human) (UniProt P24941+P20248)
MARK1 (human) = MARK1 (human) (UniProt Q9P0L2)
BRAF (human) = BRAF (human) (UniProt P15056)
ITK (human) = ITK (human) (UniProt Q08881)
[1] = system: FLT4 (human), P35916 [Q890H]
RPS6KA5 KD2 (human) = RPS6KA5 KD2 (human) (UniProt O75582)
AKT3 (human) = AKT3 (human) (UniProt Q9Y243)
PDPK1 (human) = PDPK1 (human) (UniProt O15530)
EPHA4 (human) = EPHA4 (human) (UniProt P54764)
IGF1R (human) = IGF1R (human) (UniProt P08069)
BRSK2 (human) = BRSK2 (human) (UniProt Q8IWQ3)
TLK2 (human) = TLK2 (human) (UniProt Q86UE8)
CSNK1D (human) = CSNK1D (human) (UniProt P48730)
CLK4 (human) = CLK4 (human) (UniProt Q9HAZ1)
MAP3K11 (human) = MAP3K11 (human) (UniProt Q16584)
DAPK2 (human) = DAPK2 (human) (UniProt Q9UIK4)
STK38 (human) = STK38 (human) (UniProt Q15208)
STK38 (human), sequence (Q15208 whole entry, looked up): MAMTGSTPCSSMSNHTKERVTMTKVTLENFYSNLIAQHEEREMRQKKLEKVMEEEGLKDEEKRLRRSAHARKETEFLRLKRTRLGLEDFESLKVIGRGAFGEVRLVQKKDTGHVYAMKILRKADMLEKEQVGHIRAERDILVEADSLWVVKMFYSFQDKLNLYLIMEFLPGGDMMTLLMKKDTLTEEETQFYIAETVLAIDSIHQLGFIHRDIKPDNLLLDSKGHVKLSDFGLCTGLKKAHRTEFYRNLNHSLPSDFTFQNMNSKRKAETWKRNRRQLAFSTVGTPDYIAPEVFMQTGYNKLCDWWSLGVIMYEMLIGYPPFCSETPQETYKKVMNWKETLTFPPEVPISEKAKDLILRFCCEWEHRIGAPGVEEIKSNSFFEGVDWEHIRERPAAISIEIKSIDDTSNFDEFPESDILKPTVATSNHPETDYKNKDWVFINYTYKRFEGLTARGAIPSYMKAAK

FGFR1 (human) = FGFR1 (human) (UniProt P11362)
HIPK1 (human) = HIPK1 (human) (UniProt Q86Z02)
HIPK1 (human), sequence (Q86Z02 whole entry, looked up): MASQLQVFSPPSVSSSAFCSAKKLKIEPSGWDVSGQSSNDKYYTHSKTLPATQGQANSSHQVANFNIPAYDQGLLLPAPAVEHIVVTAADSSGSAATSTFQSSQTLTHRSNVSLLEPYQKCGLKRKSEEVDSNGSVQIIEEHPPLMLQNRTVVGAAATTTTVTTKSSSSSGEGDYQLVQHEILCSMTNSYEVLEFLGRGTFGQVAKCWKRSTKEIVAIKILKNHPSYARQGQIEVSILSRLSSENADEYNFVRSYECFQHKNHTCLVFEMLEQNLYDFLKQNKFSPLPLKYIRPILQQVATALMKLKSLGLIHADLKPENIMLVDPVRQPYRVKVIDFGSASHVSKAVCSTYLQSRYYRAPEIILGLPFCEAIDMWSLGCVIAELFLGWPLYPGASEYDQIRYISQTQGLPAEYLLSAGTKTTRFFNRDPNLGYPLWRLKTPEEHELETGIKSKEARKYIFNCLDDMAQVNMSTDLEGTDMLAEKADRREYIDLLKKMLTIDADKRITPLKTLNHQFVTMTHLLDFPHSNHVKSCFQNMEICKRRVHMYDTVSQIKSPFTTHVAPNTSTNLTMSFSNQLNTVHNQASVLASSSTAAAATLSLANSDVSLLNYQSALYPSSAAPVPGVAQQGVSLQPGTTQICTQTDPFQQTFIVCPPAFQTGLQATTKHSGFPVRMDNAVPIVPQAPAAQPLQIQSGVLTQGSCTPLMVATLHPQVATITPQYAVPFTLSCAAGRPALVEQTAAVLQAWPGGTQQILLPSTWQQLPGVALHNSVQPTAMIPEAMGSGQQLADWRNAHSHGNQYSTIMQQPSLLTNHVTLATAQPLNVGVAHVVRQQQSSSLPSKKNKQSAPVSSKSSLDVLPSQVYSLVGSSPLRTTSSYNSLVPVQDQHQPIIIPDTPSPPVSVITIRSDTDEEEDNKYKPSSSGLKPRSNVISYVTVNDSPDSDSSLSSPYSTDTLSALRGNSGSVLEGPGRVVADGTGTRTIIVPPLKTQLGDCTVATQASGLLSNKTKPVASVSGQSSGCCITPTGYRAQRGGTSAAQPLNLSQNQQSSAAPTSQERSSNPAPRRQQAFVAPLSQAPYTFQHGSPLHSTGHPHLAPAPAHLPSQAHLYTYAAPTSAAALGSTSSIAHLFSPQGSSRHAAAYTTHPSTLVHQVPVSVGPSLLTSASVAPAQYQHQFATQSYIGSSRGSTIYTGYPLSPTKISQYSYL

PHKG1 (human) = PHKG1 (human) (UniProt Q16816)
MAPK11 (human) = MAPK11 (human) (UniProt Q15759)
INSR (human) = INSR (human) (UniProt P06213)
PAK1 (human) = PAK1 (human) (UniProt Q13153)
CDK1 CCNB1 (human) = CDK1 CCNB1 (human) (UniProt P06493+P14635)
CDK1 CCNB1 (human), sequence (P06493 whole entry, looked up): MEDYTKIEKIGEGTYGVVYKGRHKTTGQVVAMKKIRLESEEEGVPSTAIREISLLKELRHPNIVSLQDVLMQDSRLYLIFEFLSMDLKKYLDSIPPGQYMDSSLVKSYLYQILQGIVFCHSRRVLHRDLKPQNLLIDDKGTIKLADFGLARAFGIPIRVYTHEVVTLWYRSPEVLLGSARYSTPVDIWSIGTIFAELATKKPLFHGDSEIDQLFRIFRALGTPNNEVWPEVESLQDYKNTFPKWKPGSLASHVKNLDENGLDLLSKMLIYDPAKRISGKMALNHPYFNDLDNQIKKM
CDK1 CCNB1 (human), sequence (P14635 whole entry, looked up): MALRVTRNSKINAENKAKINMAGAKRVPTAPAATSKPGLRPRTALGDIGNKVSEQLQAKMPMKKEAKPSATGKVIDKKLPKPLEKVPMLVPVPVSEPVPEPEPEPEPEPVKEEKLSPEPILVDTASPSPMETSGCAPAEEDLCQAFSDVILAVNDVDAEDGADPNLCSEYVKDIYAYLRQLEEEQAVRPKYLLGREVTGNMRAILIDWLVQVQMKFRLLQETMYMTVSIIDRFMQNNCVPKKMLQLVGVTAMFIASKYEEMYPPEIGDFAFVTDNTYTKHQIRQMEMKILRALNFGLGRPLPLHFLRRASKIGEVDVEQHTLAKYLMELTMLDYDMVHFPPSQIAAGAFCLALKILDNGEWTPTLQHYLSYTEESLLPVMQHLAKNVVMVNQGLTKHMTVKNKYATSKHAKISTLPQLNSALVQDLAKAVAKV

NEK9 (human) = NEK9 (human) (UniProt Q8TD19)
CDC42BPA (human) = CDC42BPA (human) (UniProt Q5VT25)
[2] = target: JAK1 JH1 catalytic (human) (UniProt P23458)
JAK1 JH1 catalytic (human), sequence (P23458 whole entry, looked up): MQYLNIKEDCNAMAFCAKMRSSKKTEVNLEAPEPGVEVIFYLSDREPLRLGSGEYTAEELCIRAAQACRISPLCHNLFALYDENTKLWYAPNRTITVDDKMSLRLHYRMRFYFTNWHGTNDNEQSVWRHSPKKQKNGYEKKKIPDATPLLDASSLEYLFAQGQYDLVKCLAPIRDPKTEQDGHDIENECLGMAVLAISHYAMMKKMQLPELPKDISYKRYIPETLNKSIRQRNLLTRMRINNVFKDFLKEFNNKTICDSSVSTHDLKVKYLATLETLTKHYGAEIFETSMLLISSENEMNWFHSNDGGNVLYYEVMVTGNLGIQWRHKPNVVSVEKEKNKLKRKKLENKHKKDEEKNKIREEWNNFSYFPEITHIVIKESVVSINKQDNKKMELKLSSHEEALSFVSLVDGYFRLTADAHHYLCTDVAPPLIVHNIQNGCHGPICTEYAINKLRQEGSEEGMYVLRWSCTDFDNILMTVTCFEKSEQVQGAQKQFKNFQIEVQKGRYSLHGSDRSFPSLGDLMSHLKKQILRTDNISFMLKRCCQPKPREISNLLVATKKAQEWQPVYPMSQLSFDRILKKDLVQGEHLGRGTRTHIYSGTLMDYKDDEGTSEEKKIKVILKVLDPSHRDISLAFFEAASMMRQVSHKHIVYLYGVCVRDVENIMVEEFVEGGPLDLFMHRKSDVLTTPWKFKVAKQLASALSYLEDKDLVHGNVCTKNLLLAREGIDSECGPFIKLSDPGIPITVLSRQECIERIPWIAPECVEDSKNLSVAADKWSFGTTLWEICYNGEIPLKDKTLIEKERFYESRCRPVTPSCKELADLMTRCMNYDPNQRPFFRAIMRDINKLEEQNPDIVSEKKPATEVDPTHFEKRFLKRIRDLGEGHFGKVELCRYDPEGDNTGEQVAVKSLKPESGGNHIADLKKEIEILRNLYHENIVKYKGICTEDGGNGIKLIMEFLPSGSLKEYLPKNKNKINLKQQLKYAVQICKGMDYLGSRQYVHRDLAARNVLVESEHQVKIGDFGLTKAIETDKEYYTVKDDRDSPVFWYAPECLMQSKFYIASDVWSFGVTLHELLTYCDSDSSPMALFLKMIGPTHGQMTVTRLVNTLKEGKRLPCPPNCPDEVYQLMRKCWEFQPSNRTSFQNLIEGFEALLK

EPHA6 (human) = EPHA6 (human) (UniProt Q9UF33)
EPHA6 (human), sequence (Q9UF33 whole entry, looked up): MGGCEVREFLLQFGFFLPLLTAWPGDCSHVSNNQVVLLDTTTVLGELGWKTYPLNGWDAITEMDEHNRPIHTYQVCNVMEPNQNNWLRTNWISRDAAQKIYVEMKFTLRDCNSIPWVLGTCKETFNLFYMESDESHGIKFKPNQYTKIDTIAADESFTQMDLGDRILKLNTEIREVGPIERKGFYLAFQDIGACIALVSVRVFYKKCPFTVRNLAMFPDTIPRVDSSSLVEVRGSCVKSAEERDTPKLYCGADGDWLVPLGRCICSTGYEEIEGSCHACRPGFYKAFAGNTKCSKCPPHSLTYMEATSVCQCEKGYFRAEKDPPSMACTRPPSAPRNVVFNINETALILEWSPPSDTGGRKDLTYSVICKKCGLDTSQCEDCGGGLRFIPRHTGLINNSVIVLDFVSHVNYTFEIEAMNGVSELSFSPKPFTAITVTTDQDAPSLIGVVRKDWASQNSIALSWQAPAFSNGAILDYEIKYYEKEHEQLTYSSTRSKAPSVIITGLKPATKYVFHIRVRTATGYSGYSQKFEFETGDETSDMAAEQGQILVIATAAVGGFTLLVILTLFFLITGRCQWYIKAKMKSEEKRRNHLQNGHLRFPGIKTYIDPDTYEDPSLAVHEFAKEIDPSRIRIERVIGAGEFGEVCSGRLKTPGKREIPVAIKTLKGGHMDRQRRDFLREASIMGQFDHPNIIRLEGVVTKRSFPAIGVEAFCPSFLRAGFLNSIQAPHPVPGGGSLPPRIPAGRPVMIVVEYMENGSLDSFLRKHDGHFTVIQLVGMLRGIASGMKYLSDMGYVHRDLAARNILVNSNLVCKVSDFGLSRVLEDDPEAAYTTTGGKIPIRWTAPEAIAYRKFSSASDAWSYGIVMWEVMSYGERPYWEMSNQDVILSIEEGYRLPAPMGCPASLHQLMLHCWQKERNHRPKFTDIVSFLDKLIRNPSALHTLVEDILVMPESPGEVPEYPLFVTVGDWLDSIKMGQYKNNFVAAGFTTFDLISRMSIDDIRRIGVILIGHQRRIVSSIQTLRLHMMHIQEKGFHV

MINK1 (human) = MINK1 (human) (UniProt Q8N4C8)
MAPKAPK5 (human) = MAPKAPK5 (human) (UniProt Q8IW41)
MAPKAPK5 (human), sequence (Q8IW41 whole entry, looked up): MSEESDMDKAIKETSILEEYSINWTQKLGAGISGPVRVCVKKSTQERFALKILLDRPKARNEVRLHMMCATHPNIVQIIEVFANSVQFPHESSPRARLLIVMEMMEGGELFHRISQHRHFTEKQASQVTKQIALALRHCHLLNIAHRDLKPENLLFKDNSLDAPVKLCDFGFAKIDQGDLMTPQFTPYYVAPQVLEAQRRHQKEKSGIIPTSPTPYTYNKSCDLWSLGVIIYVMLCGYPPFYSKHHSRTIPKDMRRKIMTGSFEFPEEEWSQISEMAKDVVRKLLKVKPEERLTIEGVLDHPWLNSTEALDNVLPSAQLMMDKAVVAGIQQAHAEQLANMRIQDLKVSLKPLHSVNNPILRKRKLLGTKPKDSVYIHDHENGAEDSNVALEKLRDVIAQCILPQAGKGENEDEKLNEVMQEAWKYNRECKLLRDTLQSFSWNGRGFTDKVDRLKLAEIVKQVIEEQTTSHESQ

GSG2 (human) = GSG2 (human) (UniProt Q8TF76)
MAPK8 (human) = MAPK8 (human) (UniProt P45983)
MAP2K1 (human) = MAP2K1 (human) (UniProt Q02750)
AKT1 (human) = AKT1 (human) (UniProt P31749)
EPHA3 (human) = EPHA3 (human) (UniProt P29320)
CAMK2D (human) = CAMK2D (human) (UniProt Q13557)
ULK3 (human) = ULK3 (human) (UniProt Q6PHR2)
SRC (human) = SRC (human) (UniProt P12931)

O=C1C(Cl)=C(N2C(=O)CCC2=O)C(=O)c2ccccc21
residual activity (MAPKAPK2 (human)): 105%
residual activity (PKN2 (human)): 108%
residual activity (MAP3K10 (human)): 92.8%
residual activity (TXK (human)): 95.5%
residual activity (CDK2 CCNA2 (human)): 109%
residual activity (MARK1 (human)): 99.3%
residual activity (BRAF (human)): 96.3%
residual activity (ITK (human)): 87.5%
residual activity [1]: 102%
residual activity (RPS6KA5 KD2 (human)): 101%
residual activity (AKT3 (human)): 105%
residual activity (PDPK1 (human)): 100%
residual activity (EPHA4 (human)): 101%
residual activity (IGF1R (human)): 107%
residual activity (BRSK2 (human)): 100%
residual activity (TLK2 (human)): 117%
residual activity (CSNK1D (human)): 99.4%
residual activity (CLK4 (human)): 94.1%
residual activity (MAP3K11 (human)): 102%
residual activity (DAPK2 (human)): 133%
residual activity (STK38 (human)): 102%
residual activity (FGFR1 (human)): 99.5%
residual activity (HIPK1 (human)): 104%
residual activity (PHKG1 (human)): 96.5%
residual activity (MAPK11 (human)): 105%
residual activity (INSR (human)): 105%
residual activity (PAK1 (human)): 96.3%
residual activity (CDK1 CCNB1 (human)): 118%
residual activity (NEK9 (human)): 98.3%
residual activity (CDC42BPA (human)): 103%
residual activity [2]: 107%
residual activity (EPHA6 (human)): 89.5%
residual activity (MINK1 (human)): 95.6%
residual activity (MAPKAPK5 (human)): 73.6%
residual activity (GSG2 (human)): 101%
residual activity (MAPK8 (human)): 122%
residual activity (MAP2K1 (human)): 76.5%
residual activity (AKT1 (human)): 103%
residual activity (EPHA3 (human)): 105%
residual activity (CAMK2D (human)): 109%
residual activity (ULK3 (human)): 102%
residual activity (SRC (human)): 95.1%

c1ccc2c(-c3ccncc3)c[nH]c2c1
residual activity (MAPKAPK2 (human)): 101%
residual activity (PKN2 (human)): 80.8%
residual activity (MAP3K10 (human)): 101%
residual activity (TXK (human)): 104%
residual activity (CDK2 CCNA2 (human)): 99.7%
residual activity (MARK1 (human)): 94.5%
residual activity (BRAF (human)): 94%
residual activity (ITK (human)): 94.8%
residual activity [1]: 119%
residual activity (RPS6KA5 KD2 (human)): 96.7%
residual activity (AKT3 (human)): 101%
residual activity (PDPK1 (human)): 96.6%
residual activity (EPHA4 (human)): 108%
residual activity (IGF1R (human)): 105%
residual activity (BRSK2 (human)): 98.6%
residual activity (TLK2 (human)): 95.8%
residual activity (CSNK1D (human)): 105%
residual activity (CLK4 (human)): 101%
residual activity (MAP3K11 (human)): 95.2%
residual activity (DAPK2 (human)): 108%
residual activity (STK38 (human)): 109%
residual activity (FGFR1 (human)): 92.7%
residual activity (HIPK1 (human)): 97.4%
residual activity (PHKG1 (human)): 90.3%
residual activity (MAPK11 (human)): 112%
residual activity (INSR (human)): 90.5%
residual activity (PAK1 (human)): 99.1%
residual activity (CDK1 CCNB1 (human)): 96%
residual activity (NEK9 (human)): 101%
residual activity (CDC42BPA (human)): 99.9%
residual activity [2]: 109%
residual activity (EPHA6 (human)): 104%
residual activity (MINK1 (human)): 84.6%
residual activity (MAPKAPK5 (human)): 96.1%
residual activity (GSG2 (human)): 62.3%
residual activity (MAPK8 (human)): 100%
residual activity (MAP2K1 (human)): 96.5%
residual activity (AKT1 (human)): 100%
residual activity (EPHA3 (human)): 107%
residual activity (CAMK2D (human)): 103%
residual activity (ULK3 (human)): 83%
residual activity (SRC (human)): 100%

COc1cc2ncnc(Nc3ccc(Oc4ccccc4)cc3)c2cc1OC
residual activity (MAPKAPK2 (human)): 103%
residual activity (PKN2 (human)): 93.6%
residual activity (MAP3K10 (human)): 96.7%
residual activity (TXK (human)): 78%
residual activity (CDK2 CCNA2 (human)): 100%
residual activity (MARK1 (human)): 93.3%
residual activity (BRAF (human)): 79.6%
residual activity (ITK (human)): 93.6%
residual activity [1]: 62.5%
residual activity (RPS6KA5 KD2 (human)): 106%
residual activity (AKT3 (human)): 105%
residual activity (PDPK1 (human)): 111%
residual activity (EPHA4 (human)): 106%
residual activity (IGF1R (human)): 102%
residual activity (BRSK2 (human)): 101%
residual activity (TLK2 (human)): 107%
residual activity (CSNK1D (human)): 106%
residual activity (CLK4 (human)): 122%
residual activity (MAP3K11 (human)): 68.5%
residual activity (DAPK2 (human)): 102%
residual activity (STK38 (human)): 105%
residual activity (FGFR1 (human)): 85%
residual activity (HIPK1 (human)): 102%
residual activity (PHKG1 (human)): 91.8%
residual activity (MAPK11 (human)): 105%
residual activity (INSR (human)): 88.8%
residual activity (PAK1 (human)): 98.2%
residual activity (CDK1 CCNB1 (human)): 81.2%
residual activity (NEK9 (human)): 97.8%
residual activity (CDC42BPA (human)): 95.4%
residual activity [2]: 105%
residual activity (EPHA6 (human)): 64.8%
residual activity (MINK1 (human)): 101%
residual activity (MAPKAPK5 (human)): 98%
residual activity (GSG2 (human)): 92%
residual activity (MAPK8 (human)): 91.8%
residual activity (MAP2K1 (human)): 85.9%
residual activity (AKT1 (human)): 107%
residual activity (EPHA3 (human)): 101%
residual activity (CAMK2D (human)): 97.2%
residual activity (ULK3 (human)): 94.7%
residual activity (SRC (human)): 82.8%
